Several values for one entry are separate records, joined by “and”; a condition that tells them apart may be missing. Equal values may be shown once. Entries after “also recorded” stand apart in the source; their conditions may differ. Read-outs that look alike come from different tables or passages of the source.
Test: Plasma kinetics in rat following intravenous and oral administration;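 on AUC0-∞: parameter is AUC from zero to infinity in ng·h/mL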
Format: in vivo, Sprague Dawley rats
Settings: male rats
Procedure: This study determined the intravenous pharmacokinetics and oral bioavailability of compound 1 of the invention (see FIG. 1A, structure no. 1), compound 2 of the invention (see FIG. 1D, structure no. 19) and compound 3 of the invention (see FIG. 1I, structure no. 53) following administration to Sprague Dawley rats at a dose level of 10 mg/kg.
Six groups of 3 male rats received either a single intravenous or single oral administration of compound 1, 2 or 3 of the invention at a dose level of 10 mg/kg. Blood samples were obtained at various times after dosing. Plasma samples were analysed for unchanged test item using a suitable LC-MS/MS method. Pharmacokinetic parameters were estimated from individual plasma concentrations.
Eighteen male rats each received either a single intravenous or a single oral administration of either compound 1, 2 or 3 at a dose level of 10 mg/kg. The formulation was orally administered to each animal by gastric gavage and intravenously administered to each animal via a tail vein. The dose was administered at a dose volume of 5 mL/kg. The formulations were administered to each animal according to the details in the following table:
Blood samples (ca 0.3 mL) were removed from the femoral vein of each animal into tubes containing lithium heparin as anticoagulant.
Blood samples were collected from 3 rats at the following times after dose administration: • 3, 6, 15, 45 min and 1.5, 2.5, 4, 6, 8, 24 h post dose. Oral Administration
Blood samples were collected from 3 rats at the following times after dose administration: • 5, 15, 45 min and 1.5, 2.5, 4, 6, 8, 24 h post dose. Processing of Blood Samples
Pharmacokinetic parameters of compound 1, 2 and 3 were derived by non-compartmental analysis using WinNonLin Pro version 5.0.1 (Pharsight 2005). The following parameters were derived, where appropriate, from the individual plasma concentration versus time profiles:
• F % The absolute oral bioavailability calculated as [AUC0-t (oral)*Dose(iv)/AUC0-t (iv)*Dose (oral)]*100 based on mean values derived after oral and intravenous administration Consideration was given to the estimation of λz and corresponding t1/2 values. Three or more points are required within the terminal phase for λz and t1/2 to be estimated. The following additional variables were tabulated to aid identification of potentially unreliable estimates of t1/2 and AUC:
Pharmacokinetic parameters were reported as geometric mean except Tmax which was reported as the median. Geometric coefficient of variation was calculated as: […]
Actual sampling times were used for all calculations of pharmacokinetic parameters. Plasma concentrations that were below the limit of quantification were taken as zero for the pharmacokinetic analysis.

[1] = oral 10 mg/kg, individual animals, acetate, 10 mg/kg

- AUC(0-inf) (male, Sprague Dawley, rat, plasma, po, 10 mg/kg, oral 10 mg/kg, Geometric mean): 837 ng·h/mL
- AUC(0-t) (male, Sprague Dawley, rat, plasma, po, 10 mg/kg, oral 10 mg/kg, Geometric mean, read-out: AUC0-t): 509 ng·h/mL
- Cmax (male, Sprague Dawley, rat, plasma, po, 10 mg/kg, oral 10 mg/kg, Geometric mean, read-out: Cmax): 108 ng/mL
- MRT (male, Sprague Dawley, rat, plasma, po, 10 mg/kg, oral 10 mg/kg, Geometric mean, read-out: MRT): 6.83 h
- half-life (male, Sprague Dawley, rat, plasma, po, 10 mg/kg, oral 10 mg/kg, Geometric mean, read-out: t1/2 (converted)): 3.3 h
- Tmax (male, Sprague Dawley, rat, plasma, po, 10 mg/kg, oral 10 mg/kg, Geometric mean, read-out: tmax): 4.59 h
- AUC(0-inf) (male, Sprague Dawley, rat, plasma, po, 10 mg/kg, oral 10 mg/kg, Median): 838 ng·h/mL
- AUC(0-t) (male, Sprague Dawley, rat, plasma, po, 10 mg/kg, oral 10 mg/kg, Median, read-out: AUC0-t): 565 ng·h/mL
- Cmax (male, Sprague Dawley, rat, plasma, po, 10 mg/kg, oral 10 mg/kg, Median, read-out: Cmax): 112 ng/mL
- MRT (male, Sprague Dawley, rat, plasma, po, 10 mg/kg, oral 10 mg/kg, Median, read-out: MRT): 6.83 h
- half-life (male, Sprague Dawley, rat, plasma, po, 10 mg/kg, oral 10 mg/kg, Median, read-out: t1/2 (converted)): 3.3 h
- Tmax (male, Sprague Dawley, rat, plasma, po, 10 mg/kg, oral 10 mg/kg, Median, read-out: tmax): 4.02 h
- AUC(0-inf) (male, Sprague Dawley, rat, plasma, po, 10 mg/kg, oral 10 mg/kg, individual animals): 863 ng·h/mL
- AUC(0-t) (male, Sprague Dawley, rat, plasma, po, 10 mg/kg, oral 10 mg/kg, individual animals, read-out: AUC0-t): 605 ng·h/mL
- Cmax (male, Sprague Dawley, rat, plasma, po, 10 mg/kg, oral 10 mg/kg, individual animals, read-out: Cmax): 132 ng/mL
- MRT (male, Sprague Dawley, rat, plasma, po, 10 mg/kg, oral 10 mg/kg, individual animals, read-out: MRT): 6.82 h
- half-life (male, Sprague Dawley, rat, plasma, po, 10 mg/kg, oral 10 mg/kg, individual animals, read-out: t1/2 (converted)): 3.19 h
- Tmax (male, Sprague Dawley, rat, plasma, po, 10 mg/kg, oral 10 mg/kg, individual animals, read-out: tmax): 4.02 h
- Tmax (male, Sprague Dawley, rat, plasma, po, 10 mg/kg, oral 10 mg/kg, from mean plasma concentrations, read-out: time post dose at which maximum plasma concentration was observed (tmax)): 4 h
- half-life (male, Sprague Dawley, rat, plasma, po, 10 mg/kg, oral 10 mg/kg, read-out: apparent terminal half-life (converted)): 3.3 h
- concentration at 0.08 h (male, Sprague Dawley, rat, plasma, po, 10 mg/kg, single oral 10 mg/kg, 0.08 h, individual animals, LLOQ 2.50 (Table X: * 5.0, ** 25, diluted samples), read-out: Sample Concentration in plasma): 2.53 ng/mL
- concentration at 0.08 h (male, Sprague Dawley, rat, plasma, po, 10 mg/kg, single oral 10 mg/kg, 0.08 h, mean, read-out: Mean Concentration in plasma): 2.53 ng/mL
- concentration at 0.25 h (male, Sprague Dawley, rat, plasma, po, 10 mg/kg, single oral 10 mg/kg, 0.25 h, mean of 3, read-out: Mean Concentration in plasma): 20.5 ng/mL
- concentration at 0.75 h (male, Sprague Dawley, rat, plasma, po, 10 mg/kg, single oral 10 mg/kg, 0.75 h, individual animals, read-out: Sample Concentration in plasma): 29.1 ng/mL
- concentration at 0.75 h (male, Sprague Dawley, rat, plasma, po, 10 mg/kg, single oral 10 mg/kg, 0.75 h, mean of 3, read-out: Mean Concentration in plasma): 30.8 ng/mL
- concentration at 1.5 h (male, Sprague Dawley, rat, plasma, po, 10 mg/kg, single oral 10 mg/kg, 1.5 h, mean of 3, read-out: Mean Concentration in plasma): 39.2 ng/mL
- concentration at 2.5 h (male, Sprague Dawley, rat, plasma, po, 10 mg/kg, single oral 10 mg/kg, 2.5 h, mean of 3, read-out: Mean Concentration in plasma): 62.7 ng/mL
- concentration at 4 h (male, Sprague Dawley, rat, plasma, po, 10 mg/kg, single oral 10 mg/kg, 4 h, individual animals, read-out: Sample Concentration in plasma): 112 ng/mL
- concentration at 4 h (male, Sprague Dawley, rat, plasma, po, 10 mg/kg, single oral 10 mg/kg, 4 h, mean of 3, read-out: Mean Concentration in plasma): 92.5 ng/mL
- concentration at 6 h (male, Sprague Dawley, rat, plasma, po, 10 mg/kg, single oral 10 mg/kg, 6 h, individual animals, read-out: Sample Concentration in plasma): 70.4 ng/mL
- concentration at 6 h (male, Sprague Dawley, rat, plasma, po, 10 mg/kg, single oral 10 mg/kg, 6 h, mean of 3, read-out: Mean Concentration in plasma): 80.1 ng/mL
- concentration at 8 h (male, Sprague Dawley, rat, plasma, po, 10 mg/kg, single oral 10 mg/kg, 8 h, individual animals, LLOQ 2.50, read-out: Sample Concentration in plasma): 50.1 ng/mL
- concentration at 8 h (male, Sprague Dawley, rat, plasma, po, 10 mg/kg, single oral 10 mg/kg, 8 h, mean, LLOQ 2.50, read-out: Mean Concentration in plasma): 60.8 ng/mL
- mean absorption time (MAT) (oral 10 mg/kg): 3.52 h
- MAT (oral 10 mg/kg, Arithmetic Mean): 3.59 h
- MAT (oral 10 mg/kg, Geometric mean): 3.52 h
- MAT (oral 10 mg/kg, Median): 3.59 h
- AUC0-∞ [1]: 812 ng·h/mL
- AUC(0-t) [1]: 565 ng·h/mL and 386 ng·h/mL
- Cmax [1]: 85.5 ng/mL
- MAT [1]: 2.86 h and 4.32 h
- MRT [1]: 6.84 h
- Tmax [1]: 6.00 h
- t1/2 [1]: 3.42 h
- maximum observed plasma concentration, mean value (oral 10 mg/kg, at tmax): 92.5 ng/mL
- Sample Concentration in plasma (single intravenous 10 mg/kg, 0.05 h, individual animals, acetate, 10 mg/kg): 2940 ng/mL and 4040 ng/mL
- Sample Concentration in plasma (single intravenous 10 mg/kg, 0.1 h, individual animals, acetate, 10 mg/kg): 1300 ng/mL and 1030 ng/mL
- Sample Concentration in plasma (single intravenous 10 mg/kg, 0.25 h, individual animals, acetate, 10 mg/kg): 904 ng/mL and 954 ng/mL
- Sample Concentration in plasma (single intravenous 10 mg/kg, 0.75 h, individual animals, acetate, 10 mg/kg): 445 ng/mL and 545 ng/mL
- Sample Concentration in plasma (single intravenous 10 mg/kg, 1.5 h, individual animals, acetate, 10 mg/kg): 327 ng/mL and 403 ng/mL
- Sample Concentration in plasma (single intravenous 10 mg/kg, 2.5 h, individual animals, acetate, 10 mg/kg): 274 ng/mL and 240 ng/mL
- Sample Concentration in plasma (single intravenous 10 mg/kg, 4 h, individual animals, acetate, 10 mg/kg): 225 ng/mL and 171 ng/mL
- Sample Concentration in plasma (single intravenous 10 mg/kg, 6 h, individual animals, acetate, 10 mg/kg): 129 ng/mL and 124 ng/mL
- Sample Concentration in plasma (single intravenous 10 mg/kg, 8 h, individual animals, LLOQ 2.50, acetate, 10 mg/kg): <LLOQ and 100 ng/mL
- Sample Concentration in plasma (single intravenous 10 mg/kg, 24 h, individual animals, LLOQ 2.50, acetate, 10 mg/kg): <LLOQ and 2.55 ng/mL
- Sample Concentration in plasma (single oral 10 mg/kg, 0.08 h, individual animals, LLOQ 2.50 (Table X: * 5.0, ** 25, diluted samples), acetate, 10 mg/kg): <LLOQ
- Sample Concentration in plasma (single oral 10 mg/kg, 0.25 h, individual animals, acetate, 10 mg/kg): 14.7 ng/mL and 14.1 ng/mL and 32.8 ng/mL
- Sample Concentration in plasma (single oral 10 mg/kg, 0.75 h, individual animals, acetate, 10 mg/kg): 26.6 ng/mL and 36.6 ng/mL
- Sample Concentration in plasma (single oral 10 mg/kg, 1.5 h, individual animals, acetate, 10 mg/kg): 61.4 ng/mL and 19.2 ng/mL and 37.0 ng/mL
- Sample Concentration in plasma (single oral 10 mg/kg, 2.5 h, individual animals, acetate, 10 mg/kg): 82.5 ng/mL and 37.2 ng/mL and 68.4 ng/mL
- Sample Concentration in plasma (single oral 10 mg/kg, 4 h, individual animals, acetate, 10 mg/kg): *33.4 ng/mL and 132 ng/mL
- Sample Concentration in plasma (single oral 10 mg/kg, 6 h, individual animals, acetate, 10 mg/kg): 85.5 ng/mL and 84.5 ng/mL
- Sample Concentration in plasma (single oral 10 mg/kg, 8 h, individual animals, LLOQ 2.50, acetate, 10 mg/kg): 76.1 ng/mL and 56.2 ng/mL
- Sample Concentration in plasma (single oral 10 mg/kg, 24 h, individual animals, LLOQ 2.50): <LLOQ
- Mean Concentration in plasma (single oral 10 mg/kg, 24 h, mean, LLOQ 2.50): <LLOQ
Structure (SMILES): N=C(N)NN=CC=Cc1cccn1-c1ccccc1Br [Compound 3, [1-(2-bromophenyl)-1H-pyrrol-2-yl-allylideneamino]guanidinium acetate]
- adverse effects (single intravenous or oral administration, 10 mg/kg, acetate): No adverse effects; also recorded: No adverse affects
